Test results from the CheMixHub ionic liquid set.

Assay: xn = mol fraction of the nth substance listed
Details: for electrical conductivity: 101 kPa, frequency 2 MHz; for viscosity: 100 kPa

O=S(=O)([O-])C(F)(F)F.[Li+] + O=S(=O)([N-]S(=O)(=O)C(F)(F)F)C(F)(F)F.[Li+] + O
Details | electrical conductivity, 298.1 K [S/m] | electrical conductivity, 303 K [S/m] | electrical conductivity, 308.1 K [S/m] | electrical conductivity, 313 K [S/m] | viscosity, 298.15 K [mPa·s] | viscosity, 308.15 K [mPa·s]
x1 = 0.04029, x2 = 0.1114 | – | – | – | – | 7.5 | 5.6
x1 = 0.07222, x2 = 0.1893 | – | – | – | – | 29.1 | 20.6
x1 = 0.09226, x2 = 0.2336 | – | – | – | – | 69 | 45.7
x1 = 0.1024, x2 = 0.2553 | – | – | – | – | 98 | 63
x1 = 0.1122, x2 = 0 | – | – | – | – | 3.7 | 2.9
x1 = 0.1122, x2 = 0.2745 | – | – | – | – | 152 | 94.6
x1 = 0.1783, x2 = 0 | – | – | – | – | 9.2 | 6.9
x1 = 0.2388, x2 = 0 | – | – | – | – | 21.9 | 16
x1 = 0.2541, x2 = 0 | – | – | – | – | 31.8 | 22.6
x1 = 0.2743, x2 = 0 | – | – | – | – | 47.2 | 32.9
x2 = 0.001799, x1 = 0.0005943 | – | 0.867 | 0.961 | 1.06 | – | –
x2 = 0.005377, x1 = 0.001799 | – | 2.117 | 2.36 | 2.61 | – | –
x2 = 0.00893, x1 = 0.003054 | 2.76 | 3.1 | 3.46 | 3.835 | – | –
x2 = 0.01246, x1 = 0.004127 | 3.46 | 3.9 | 4.36 | 4.834 | – | –
x2 = 0.01596, x1 = 0.005377 | 4.045 | 4.56 | 5.1 | 5.66 | – | –
x2 = 0.01944, x1 = 0.006623 | 4.522 | 5.1 | 5.702 | 6.331 | – | –
x2 = 0.05129, x1 = 0.0177 | 6.08 | 6.85 | 7.67 | 8.518 | – | –
x2 = 0.08265, x1 = 0.02921 | 5.326 | 6.011 | 6.732 | 7.48 | – | –
x2 = 0.112, x1 = 0.04029 | 4.123 | 4.67 | 5.239 | 5.838 | – | –
x2 = 0.1395, x1 = 0.05129 | 3.035 | 3.45 | 3.89 | 4.36 | – | –
x2 = 0.1654, x1 = 0.06203 | 2.18 | 2.5 | 2.839 | 3.201 | – | –
x2 = 0.1898, x1 = 0.07238 | 1.55 | 1.79 | 2.05 | 2.334 | – | –
x2 = 0.2128, x1 = 0.08265 | 1.09 | 1.28 | 1.48 | 1.7 | – | –
x2 = 0.2345, x1 = 0.0927 | 0.768 | 0.908 | 1.06 | 1.234 | – | –
x2 = 0.2551, x1 = 0.1024 | 0.537 | 0.643 | 0.763 | 0.895 | – | –
x2 = 0.2745, x1 = 0.112 | 0.374 | 0.454 | 0.545 | 0.647 | – | –
